In ChEMBL document CHEMBL1147368, “Constituents of Fevillea cordifolia: New Norcucurbitacin and Cucurbitacin Glycosides” (1993) one finds inhibition in vivo data, which are given here for 3 compounds.

What is called inhibition in vivo is the change of the read-out against control, counted positive when it falls.

What all share (assay type): functional
Test [1] concerns Rattus norvegicus. Put plainly: Antiinflammatory activity in rat assessed as inhibition of carrageenan-induced paw edema at 0.125 mg/kg, po.
Test [2] concerns Rattus norvegicus. Nature of the test: Antiinflammatory activity in rat assessed as inhibition of carrageenan-induced paw edema at 2 mg/kg, po.
Test [3] concerns Rattus norvegicus. Put plainly: Antiinflammatory activity in rat assessed as inhibition of carrageenan-induced paw edema at 100 mg/kg, po. On the technique in general: In the carrageenan paw model, swelling and tenderness develop within hours.

The structures appear in SMILES notation.

Take `C[C@H]1C[C@H]2[C@@H]3CCC4=CC(=O)C=C[C@]4(C)[C@@]3(F)[C@@H](O)C[C@]2(C)[C@@]1(O)C(=O)CO` [BETAMETHASONE]: in test [1], the inhibition in vivo at 0.125 mg/kg worked out at 63%.

As for `COc1ccc2c(c1)c(CC(=O)O)c(C)n2C(=O)c1ccc(Cl)cc1` [INDOMETHACIN], in test [2], the inhibition in vivo at 2 mg/kg worked out at 47%.

`CC(=O)Oc1ccccc1C(=O)O` [ASPIRIN]: the inhibition in vivo at 100 mg/kg in test [3] worked out at 44%.
